Experiments:
[1] = test system: T2 cell lines and HLA-A2 positive tumor cells; test: IFN-γ EliSpot of CD8+T cells from peptide-immunized mice against peptide-sensitized T2 cells and tumor cells; format: in vivo, HLA-A2 transgenic mice; settings: targets CCRF-SB, THP-1, SKM-1, SK-MEL-5 (HLA-A2 positive), HL-60 and SK-MEL-3 (HLA-A2 negative), FIG. 4A to 4C
From the text: FIG. 4A to 4C illustrate the EliSpot results confirming immune responses occurring by immunization of HLA-A2 transgenic mice with PLK1123 (SDFVFVVLEL, SEQ ID NO: 1)(FIG. 4A), PLK1477 (TLLKYFRNYM, SEQ ID NO: 2)(FIG. 4B), and PLK1541/21 (LILCPLMAAV, SEQ ID NO: 3)(FIG. 4C) among PLK1-derived epitope candidates specific for HLA-2 by a dendritic cell vaccination and peptide-based vaccination strategy.
In order to examine CD8+T cell immune responses, an immune response occurring in the spleen was confirmed by immunization into HLA-A2 transgenic mice by a dendritic cell vaccination and peptide-based vaccination strategy. For this purpose, HLA-A2-binding PLK1123 ([…], SEQ ID NO: 1), PLK1477 (TLLKYFRNYM, SEQ ID NO: 2), and PLK1541 (LILCPLMAAV, SEQ ID NO: 3) peptides confirmed as dominant epitopes were selected in a multi-epitope DNA-based vaccination experiment in the HLA-A2 transgenic mice, and immunized into the HLA-As transgenic mice by a dendritic cell vaccination and peptide-based TriVax vaccination (CD40 antibody/Poly-IC/epitope) strategy. After an immune response to each epitope-peptide was induced through this, CD8+T cells were obtained by antibody-binding magnetic cell sorting, and used as effector cells for confirming an antigen-specific T cell response. […]

[2] = test system: T2 cell lines expressing HLA-A2 molecules; test: IFN-γ EliSpot of spleen CD8+T cells from mice electroporated with multi-epitope PLK1 recombinant DNA, against T2 cells sensitized with each epitope peptide; format: cell-based, HLA-A2 transgenic mice; settings: CD8+T cells of spleens after electroporation with PLKWT / PLKOPT recombinant DNA 3 times at 7-day intervals, FIGS. 2A and 2B
From the text: FIGS. 2A and 2B illustrate the EliSpot results confirming immune responses occurring in the spleen after HLA-A2 transgenic mice are subjected to electroporation with a recombinant DNA (FIG. 2A) including multiple wild-type PLK1 epitopes and a recombinant DNA (FIG. 2B) including multiple PLK1 epitopes optimized for recombination.
In order to use a DNA-based vaccination strategy inducing multi-epitope-specific T cell immune responses, an amino acid sequence of the predicted PLK1-derived HLA-A2 multi-epitope was linked to a furin-sensitive linker (SGSG) amino acid sensitive to a proteolytic enzyme of the Golgi apparatus and cloned into a pCI expression vector (see FIG. 1).
Recombinant DNA, PLKWT and PLKOPT were transfected into HLA-A2 transgenic mice and biological electric shock therapy was performed at 95 V (4×65 ms pulses with repoling) using an Electro square wave electroporation device (ECM830; BTX; San Diego, CA). After the biological electric shock therapy was performed 3 times at 7-day intervals, CD8+T cells of mouse spleens were isolated. IFN-γ EliSpot was performed by sensitizing T2 cell lines expressing HLA-A2 molecules with each predicted epitope peptide and using T2 cell lines as a target cell.

CD8+T cells = test: Flow cytometry of spleen CD8+T cells expressing IFN-γ and CD107a/b after dendritic cell vaccination and peptide-based TriVax vaccination; format: in vivo, HLA-A2 transgenic mice; settings: spleen T cells cultured with PLK1 antigen; compared to the groups using PLK1477 and PLK1541 antigen-peptides; FIG. 3
From the text: FIG. 3 illustrates flow cytometry analysis results confirming CD8+T cell immune responses of PLK1123 (SDFVFVVLEL, SEQ ID NO: 1), PLK1477 (TLLKYFRNYM, SEQ ID NO: 2), and PLK1541/21 (LILCPLMAAV, SEQ ID NO: 3) among PLK-1-derived epitope candidates specific for HLA-A2 with CD107a/b.
Next, HLA-A2-binding PLK1123 (SDFVFVVLEL, SEQ ID NO: 1), PLK1477 (TLLKYFRNYM, SEQ ID NO: 2), and PLK1541 (LILCPLMAAV, SEQ ID NO: 3) peptides confirmed as dominant epitopes were selected in a multi-epitope DNA-based vaccination experiment in the HLA-A2 transgenic mice, and immunized into the HLA-As transgenic mice by a dendritic cell vaccination and peptide-based TriVax vaccination (CD40 antibody/Poly-IC/epitope) strategy. After an immune response to each epitope-peptide was induced through this, T cells of the spleens were obtained and each cultured with a PLK1 antigen, and then CD8+T cells expressing IFN-γ and CD107a/b were confirmed using flow cytometry.

Sequence: SDFVFVVLEL (Human Polo-like kinase-1) [PLK1123]
- CD8+T cell responses specific for T2 cell lines and HLA-A2 positive tumor cells sensitized with PLK1-derived antigen-peptides [1]: observed
- ability to produce IFN-γ by the activation of CD8+T cells for T2 cell lines sensitized with each epitope peptide [2]: high levels
- rate of antigen-specific CD8+T cells (IFN-γ and CD107a/b) (CD8+T cells): relatively high rate

Sequence: LILCPLMAAV (Human Polo-like kinase-1) [PLK1541 21]
- ability to produce IFN-γ by the activation of CD8+T cells for T2 cell lines sensitized with each epitope peptide [2]: high levels

Sequence: ILCPLMAAV (Human Polo-like kinase-1) [PLK1542]
- ability to produce IFN-γ by the activation of CD8+T cells for T2 cell lines sensitized with each epitope peptide [2]: high levels

Sequence: TLLKYFRNYM (Human Polo-like kinase-1) [PLK1477]
- ability to produce IFN-γ by the activation of CD8+T cells for T2 cell lines sensitized with each epitope peptide [2]: high levels

Source: patent publication US12054752B2, “HLA-A2 subtype-specific PLK1-derived epitope inducing antigen-specific t cell immune response to PLK1 protein” (THE CATHOLIC UNIVERSITY OF KOREA INDUSTRY-ACADEMIC …, priority 2017, dated 2024)
